Laboratory results: patent publication US20250313548A1 (Actio Biosciences, Inc., priority 2023, published 2025)

The molecules below were run against human, KCNT1 (Homo sapiens (Human), UniProt Q5JUK3) (assay: FLIPR Tl/K Flux Assay). Conditions: HEK293 cells stably expressing human KCNT1; Tl+ flux stimulated with EC80 of agonist Loxapine.
Assay type: cell-based
How it was run: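 Inhibition values come from a Hill-equation fit of % inhibition versus log concentration, using normalized fluorescence (Fmax/Fmin) over a 160 s read. The read followed stimulation with Tl+ plus EC80 agonist loxapine after 30 min compound pre-incubation at 25 °C. Cells were KCNT1-expressing HEK293, dye-loaded 1 h in pH 7.4 HEPES/HBSS with 5 mM probenecid.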

Chain of human, KCNT1 (Q5JUK3 whole entry): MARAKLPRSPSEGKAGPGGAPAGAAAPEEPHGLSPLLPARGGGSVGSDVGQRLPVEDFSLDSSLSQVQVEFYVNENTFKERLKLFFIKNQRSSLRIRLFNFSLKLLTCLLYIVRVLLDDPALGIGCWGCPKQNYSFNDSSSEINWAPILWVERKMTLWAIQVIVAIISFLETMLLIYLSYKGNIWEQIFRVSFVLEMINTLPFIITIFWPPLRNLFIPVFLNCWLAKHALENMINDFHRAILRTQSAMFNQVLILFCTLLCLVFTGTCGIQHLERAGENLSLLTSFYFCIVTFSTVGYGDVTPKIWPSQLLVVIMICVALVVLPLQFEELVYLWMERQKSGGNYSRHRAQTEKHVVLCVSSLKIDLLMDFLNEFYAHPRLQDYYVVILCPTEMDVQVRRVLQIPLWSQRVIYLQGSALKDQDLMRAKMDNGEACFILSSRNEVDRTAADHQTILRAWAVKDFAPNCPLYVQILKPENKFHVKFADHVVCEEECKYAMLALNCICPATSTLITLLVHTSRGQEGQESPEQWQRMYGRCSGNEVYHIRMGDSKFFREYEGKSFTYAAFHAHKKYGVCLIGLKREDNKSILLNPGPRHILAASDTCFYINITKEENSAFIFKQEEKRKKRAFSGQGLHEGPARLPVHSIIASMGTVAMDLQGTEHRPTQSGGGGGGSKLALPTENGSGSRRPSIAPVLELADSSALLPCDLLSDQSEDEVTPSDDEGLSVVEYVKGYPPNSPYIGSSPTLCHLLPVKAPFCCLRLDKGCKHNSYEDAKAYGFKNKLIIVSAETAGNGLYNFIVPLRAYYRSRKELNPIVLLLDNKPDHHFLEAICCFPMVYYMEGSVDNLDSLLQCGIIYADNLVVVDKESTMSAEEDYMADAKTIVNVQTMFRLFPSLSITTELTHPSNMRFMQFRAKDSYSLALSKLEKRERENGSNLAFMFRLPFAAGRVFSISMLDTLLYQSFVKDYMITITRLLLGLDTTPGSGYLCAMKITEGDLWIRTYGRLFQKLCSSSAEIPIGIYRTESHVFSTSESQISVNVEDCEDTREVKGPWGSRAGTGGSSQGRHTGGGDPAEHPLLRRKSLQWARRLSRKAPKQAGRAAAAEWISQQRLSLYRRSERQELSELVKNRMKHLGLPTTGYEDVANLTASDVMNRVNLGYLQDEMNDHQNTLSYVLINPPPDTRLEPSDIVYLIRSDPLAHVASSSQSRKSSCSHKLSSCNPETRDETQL

SMILES | IC50 [nM]
N#CC12CC(C(=O)N[C@H]3CCn4nc(-c5ccnc(C(F)(F)F)c5)cc43)(C1)C2 [Compound I-491a, (S)-3-Cyano-N-(2-(2-(trifluoromethyl)pyridin-4-yl)-5,6-dihydro-4H-pyrrolo[1,2-b]pyrazol-4-yl)bicyclo[1.1.1]pentane-1-carboxamide] | 500 to 1000
CCOc1cc(C(=O)N[C@H]2CCn3nc(-c4ccnc(C(F)(F)F)c4)cc32)ccn1 [Compound I-264a] | < 250
Cn1nc(C(F)(F)F)cc1C(=O)N[C@@H]1CCc2nn(-c3ccnc(C(F)(F)F)c3)cc21 [Compound I-1b, (R)-1-Methyl-3-(trifluoromethyl)-N-(2-(2-(trifluoromethyl)pyridin-4-yl)-2,4,5,6-tetrahydrocyclopenta[c]pyrazol-4-yl)-1H-pyrazole-5-carboxamide] | > 1000
N#Cc1cc(C(=O)N[C@H]2CCn3nc(-c4ccnc(C(F)(F)F)c4)cc32)ccc1F [Compound I-266a, (S)-3-Cyano-4-fluoro-N-(2-(2-(trifluoromethyl)pyridin-4-yl)-5,6-dihydro-4H-pyrrolo[1,2-b]pyrazol-4-yl)benzamide] | < 250
Cn1nc(C(F)(F)F)cc1C(=O)N[C@H]1CCCCn2nc(-c3ccnc(C(F)(F)F)c3)cc21 [Compound I-385a] | < 250
O=C(N[C@H]1CCc2nn(-c3ccnc(C(F)(F)F)c3)cc21)C12CC(C(F)(F)F)(C1)C2 [Compound I-553a, (S)-3-(Trifluoromethyl)-N-(2-(2-(trifluoromethyl)pyridin-4-yl)-2,4,5,6-tetrahydrocyclopenta[c]pyrazol-4-yl)bicyclo[1.1.1]pentane-1-carboxamide] | < 250
N#Cc1cccc(C(=O)N[C@H]2CCCc3oc(-c4ccnc(C5CC5)c4)nc32)c1 [Compound I-232a, (S)-3-Cyano-N-(2-(2-cyclopropylpyridin-4-yl)-4,5,6,7-tetrahydrobenzo[d]oxazol-4-yl)benzamide] | < 250
COc1ccccc1C(=O)N[C@H]1CCc2nn(-c3ccnc(C(F)(F)F)c3)cc21 [Compound I-94a] | < 250
O=C(N[C@H]1CCn2nc(-c3cc(C(F)(F)F)ncc3F)cc21)C12CC(CC(F)(F)F)(C1)C2 [Compound I-539a] | < 250
O=C(N[C@H]1CCCn2nc(-c3ccnc(C(F)(F)F)c3)nc21)c1cc(F)cc(F)c1 [Compound I-234a, (S)-3,5-Difluoro-N-(2-(2-(trifluoromethyl)pyridin-4-yl)-5,6,7,8-tetrahydro-[1,2,4]triazolo[1,5-a]pyridin-8-yl)benzamide] | < 250
COc1cc(-c2nc3c(o2)[C@@H](NC(=O)c2ccnc(OC(F)(F)F)c2)CCC3)c(Cl)cn1 [Compound I-163a] | < 250
O=C(N[C@H]1CCCc2nc(-c3ccnc(C4CC4)c3)oc21)c1cncc(C(F)(F)F)n1 [Compound I-152a, (S)-N-(2-(2-Cyclopropylpyridin-4-yl)-4,5,6,7-tetrahydrobenzo[d]oxazol-7-yl)-6-(trifluoromethyl)pyrazine-2-carboxamide] | < 250
N#Cc1c(C(=O)N[C@H]2CCCn3nc(-c4ccnc(C(F)(F)F)c4)cc32)ncn1CC(F)(F)F [Compound I-425a] | > 1000
Cn1nc(C(F)F)nc1C(=O)N[C@H]1CCn2nc(-c3ccnc(C(F)(F)F)c3)cc21 [Compound I-155a, (S)-3-(Difluoromethyl)-1-methyl-N-(2-(2-(trifluoromethyl)pyridin-4-yl)-5,6-dihydro-4H-pyrrolo[1,2-b]pyrazol-4-yl)-1H-1,2,4-triazole-5-carboxamide] | < 250
O=C(N[C@H]1CCCn2nc(-c3ccnc(C(F)(F)F)c3)cc21)c1cc2n(n1)CCC2 [Compound I-368a] | > 1000
Cn1nc(C(F)(F)F)cc1C(=O)N[C@H]1CCCn2nc(-c3ccnc(C4(C)CC4)c3)cc21 [Compound I-459a] | < 250
Cn1nc(C(F)(F)F)cc1C(=O)N[C@H]1CCCn2nc(-c3ccnc(C(C)(F)F)c3)cc21 [Compound I-379a] | < 250
COc1cc(-c2cc3n(n2)CC[C@@H]3NC(=O)c2nc(C)nn2C)ccn1 [Compound I-230a, (S)-N-(2-(2-Methoxypyridin-4-yl)-5,6-dihydro-4H-pyrrolo[1,2-b]pyrazol-4-yl)-1,3-dimethyl-1H-1,2,4-triazole-5-carboxamide] | > 1000
CCOc1cc(C(=O)N[C@H]2CCCn3nc(-c4ccnc(C(F)(F)F)c4)cc32)ccn1 [Compound I-282a, (S)-2-Ethoxy-N-(2-(2-(trifluoromethyl)pyridin-4-yl)-4,5,6,7-tetrahydropyrazolo[1,5-a]pyridin-4-yl)isonicotinamide] | < 250
COc1cc(-c2nc3c(o2)[C@@H](NC(=O)c2cccc(OC(F)(F)F)c2)CCC3)c(Cl)cn1 [Compound I-164a, (S)-N-(2-(5-Chloro-2-methoxypyridin-4-yl)-4,5,6,7-tetrahydrobenzo[d]oxazol-7-yl)-3-(trifluoromethoxy)benzamide] | < 250
CCc1cc(C#N)cc(C(=O)N[C@H]2CCn3nc(-c4ccnc(C(F)(F)F)c4)cc32)c1 [Compound I-200a, (S)-3-Cyano-5-ethyl-N-(2-(2-(trifluoromethyl)pyridin-4-yl)-5,6-dihydro-4H-pyrrolo[1,2-b]pyrazol-4-yl)benzamide] | < 250

SMILES | IC50 [nM]
Cc1nc(C(=O)N[C@H]2CCCc3oc(-c4ccnc(C5CC5)c4)nc32)n(C)n1 [Compound I-227a, (S)-N-(2-(2-Cyclopropylpyridin-4-yl)-4,5,6,7-tetrahydrobenzo[d]oxazol-4-yl)-1,3-dimethyl-1H-1,2,4-triazole-5-carboxamide] | > 1000
Cc1cnc(C(F)(F)F)cc1-n1cc2c(n1)CC[C@@H]2NC(=O)c1cc(C(F)(F)F)nn1C [Compound I-304a, (S)-1-Methyl-N-(2-(5-methyl-2-(trifluoromethyl)pyridin-4-yl)-2,4,5,6-tetrahydrocyclopenta[c]pyrazol-4-yl)-3-(trifluoromethyl)-1H-pyrazole-5-carboxamide] | < 250
Cc1cnc(C(F)(F)F)cc1-c1cc2n(n1)CC[C@H]2NC(=O)c1cc(C(F)(F)F)nn1C [Compound I-472b] | > 1000
COc1cc(C(=O)N[C@H]2CCCn3nc(-c4ccnc(C(F)(F)F)c4)nc32)ccn1 [Compound I-214a, (S)-2-Methoxy-N-(2-(2-(trifluoromethyl)pyridin-4-yl)-5,6,7,8-tetrahydro-[1,2,4]triazolo[1,5-a]pyridin-8-yl)isonicotinamide] | < 250
CCOc1cc(C(=O)N[C@H]2CCn3nc(-c4ccnc(C5CC5)c4)cc32)ccn1 [Compound I-541a, (S)-N-(2-(2-Cyclopropylpyridin-4-yl)-5,6-dihydro-4H-pyrrolo[1,2-b]pyrazol-4-yl)-2-ethoxyisonicotinamide] | < 250
COc1cc(C(=O)N[C@H]2CCCc3oc(-c4ccnc(C(F)(F)F)c4)nc32)ccn1 [Compound I-299a] | < 250
N#Cc1cccc(C(=O)N[C@H]2CCCCn3nc(-c4ccnc(C5CC5)c4)cc32)c1 [Compound I-457a] | < 250
Cn1nc(C(=O)N[C@H]2CCCc3nn(-c4ccnc(C(F)(F)F)c4)cc32)cc1C(C)(F)F [Compound I-49a] | > 1000
O=C(N[C@H]1CCCn2nc(-c3ccnc(C(F)(F)F)c3)cc21)c1cnn(CC(F)(F)F)c1 [Compound I-435a] | > 1000
Cn1nc(C(F)(F)F)cc1C(=O)N[C@H]1CCCc2nc(-c3ccnc(C(F)(F)F)c3)ccc21 (single isomer, unassigned) [I-149*] | < 250
Cn1nc(C(F)(F)F)cc1C(=O)N[C@H]1CCCn2nc(-c3cnc(C(F)(F)F)s3)cc21 [Compound I-41a, (S)-1-Methyl-3-(trifluoromethyl)-N-(2-(2-(trifluoromethyl)thiazol-5-yl)-4,5,6,7-tetrahydropyrazolo[1,5-a]pyridin-4-yl)-1H-pyrazole-5-carboxamide] | < 250
COc1cc(-c2cc3n(n2)CCC[C@@H]3NC(=O)c2cccc(C(F)(F)F)c2)ccn1 [Compound I-355a] | < 250
COc1cc(F)cc(C(=O)N[C@H]2CCCn3nc(-c4ccnc(C(F)(F)F)c4)cc32)c1 [Compound I-578a, (S)-3-Fluoro-5-methoxy-N-(2-(2-(trifluoromethyl)pyridin-4-yl)-4,5,6,7-tetrahydropyrazolo[1,5-a]pyridin-4-yl)benzamide] | < 250
Cn1nc(C(F)(F)F)cc1C(=O)N[C@H]1CCCc2cnc(-c3ccnc(C(F)(F)F)c3)cc21 [Compound I-116a] | < 250
COc1cc(C(=O)N[C@H]2CCCn3nc(-c4ccnc(C(F)(F)F)c4)cc32)c(F)cn1 [Compound I-420a] | < 250
Cn1nc(C2CC2)nc1C(=O)N[C@H]1CCCc2oc(-c3ccnc(C4CC4)c3)nc21 [Compound I-223a, (S)-3-Cyclopropyl-N-(2-(2-cyclopropylpyridin-4-yl)-4,5,6,7-tetrahydrobenzo[d]oxazol-4-yl)-1-methyl-1H-1,2,4-triazole-5-carboxamide] | < 250
COc1cc(-c2cc3n(n2)CCC3NC(=O)c2nc(C(F)(F)F)nn2C)ccn1 (single isomer, unassigned) [Compound I-473] | > 1000
O=C(N[C@H]1CCCn2nc(-c3ccnc(C(F)(F)F)c3)cc21)c1cn(C(F)(F)F)nc1C(F)F [Compound I-497a, (S)-3-(Difluoromethyl)-1-(trifluoromethyl)-N-(2-(2-(trifluoromethyl)pyridin-4-yl)-4,5,6,7-tetrahydropyrazolo[1,5-a]pyridin-4-yl)-1H-pyrazole-4-carboxamide] | < 250
Cn1nc(C(F)(F)F)nc1C(=O)N[C@H]1CCn2nc(-c3ccnc(C(C)(F)F)c3)cc21 [Compound I-146a, (S)—N-(2-(2-(1,1-Difluoroethyl)pyridin-4-yl)-5,6-dihydro-4H-pyrrolo[1,2-b]pyrazol-4-yl)-1-methyl-3-(trifluoromethyl)-1H-1,2,4-triazole-5-carboxamide] | < 250
O=C(N[C@H]1CCCn2nc(-c3ccnc(C(F)(F)F)c3)cc21)c1cc(C(F)(F)F)nn1C1CC1 [Compound I-371a] | < 250
